Assays:
Del19/T790M/C797S EGFR = test: EGFR degradation HTRF assay in H1975-clone #28 (DTC) cells; format: cell-based; details: H1975 # 28 DTC (Del19/T790M/C797S), 16h treatment; for DC50: HTRF; for Dmax (%): maximum percentage of degradation
How it was run: (§1)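 Engineered H1975 lines (exogenous mutant EGFR, endogenous copies knocked out, single clones sequence-verified); 16 h compound, 37 °C/5% CO2, 0.2% DMSO; top 10 uM, 5-fold, 8 pts; lysis 1 h RT, HTRF antibodies overnight RT; 4-parameter logistic fit → DC50.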

L858R/T790M/C797S EGFR = target: T1, L858R/T790M/C797S EGFR (Homo sapiens, UniProt P00533, C797S/L858R/T790M); test: EGFR degradation HTRF assay in H1975-clone #25 (LTC) cells; format: cell-based; details: 16h treatment; for DC50: H1975 # 25-LTC (L858R/T790M/C797S), HTRF; for Dmax: NCI-H1975, H1975 # 25-LTC (L858R/T790M/C797S), maximum percentage of degradation
T1 construct: expressed in transfected cells; host or cells: H1975 clone #25 (lentiviral over-expression, endogenous EGFR knocked out by sgRNA)
How it was run: as §1

T1 sequence (P00533 25-1210 T790M/C797S/L858R): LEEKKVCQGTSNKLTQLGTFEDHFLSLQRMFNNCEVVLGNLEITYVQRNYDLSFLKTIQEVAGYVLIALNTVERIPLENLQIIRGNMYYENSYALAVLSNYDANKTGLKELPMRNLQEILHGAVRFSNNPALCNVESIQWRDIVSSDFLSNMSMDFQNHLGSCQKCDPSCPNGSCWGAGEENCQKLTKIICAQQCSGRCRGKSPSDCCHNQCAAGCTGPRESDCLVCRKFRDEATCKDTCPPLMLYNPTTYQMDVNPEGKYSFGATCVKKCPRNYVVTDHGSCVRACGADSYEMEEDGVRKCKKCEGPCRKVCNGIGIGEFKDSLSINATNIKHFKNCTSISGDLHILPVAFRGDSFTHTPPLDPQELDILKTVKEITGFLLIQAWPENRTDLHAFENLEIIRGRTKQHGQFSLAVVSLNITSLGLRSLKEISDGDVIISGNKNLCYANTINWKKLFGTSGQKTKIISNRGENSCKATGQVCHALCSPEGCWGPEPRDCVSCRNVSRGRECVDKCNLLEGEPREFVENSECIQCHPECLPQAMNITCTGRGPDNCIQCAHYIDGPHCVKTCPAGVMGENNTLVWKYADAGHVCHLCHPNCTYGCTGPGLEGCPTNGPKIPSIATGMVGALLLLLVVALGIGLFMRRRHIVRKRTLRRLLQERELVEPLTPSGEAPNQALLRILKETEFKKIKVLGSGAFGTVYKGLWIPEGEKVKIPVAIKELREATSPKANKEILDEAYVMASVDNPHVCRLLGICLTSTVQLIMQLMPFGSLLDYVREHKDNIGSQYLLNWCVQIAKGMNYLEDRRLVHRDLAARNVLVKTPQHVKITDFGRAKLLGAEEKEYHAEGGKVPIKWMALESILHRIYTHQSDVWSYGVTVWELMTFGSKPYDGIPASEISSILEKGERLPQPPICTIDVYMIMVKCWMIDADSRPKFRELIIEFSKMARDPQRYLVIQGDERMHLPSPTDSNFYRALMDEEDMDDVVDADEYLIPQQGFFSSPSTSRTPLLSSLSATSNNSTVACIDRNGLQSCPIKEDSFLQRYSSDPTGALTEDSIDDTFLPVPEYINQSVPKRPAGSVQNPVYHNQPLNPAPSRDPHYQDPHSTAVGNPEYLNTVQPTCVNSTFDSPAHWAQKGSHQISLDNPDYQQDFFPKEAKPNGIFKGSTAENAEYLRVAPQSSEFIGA

Cc1cc2cc(n1)-c1cnn(C)c1OCCC[C@@H](C)CN1/C(=N/C2=O)Nc2ccc(C(=O)N[C@@H]3CCN(CCc4cc(F)c([C@H]5CCC(=O)NC5=O)c(F)c4)CC3(C)C)cc21 [Example 263, (R,E)-N—((R)-1-(4-((R)-2,6-dioxopiperidin-3-yl)-3,5-difluorophenethyl)-3,3-dimethylpiperidin-4-yl)-1^1,2^6,7-trimethyl-3-oxo-5^2,5^3-dihydro-1H,5^1H-11-oxa-4-aza-5(2,1)-benzo[d]imidazola-2(2,4)-pyridina-1(4,5)-pyrazolacycloundecaphane-5^6-carboxamide]
DC50 (Del19/T790M/C797S EGFR): 0.597 nM | Dmax (%) (Del19/T790M/C797S EGFR): 78.67% | DC50 (L858R/T790M/C797S EGFR): 0.351 nM | Dmax (L858R/T790M/C797S EGFR): 93.6%

Cc1cc2cc(n1)-c1cnn(C)c1OCCC[C@@H](C)CN1/C(=N/C2=O)Nc2ccc(C(=O)N3CC[C@@H](NCCc4cc(F)c([C@H]5CCC(=O)NC5=O)c(F)c4)C3)cc21 [Example 296, (R)-3-(2,6-difluoro-4-(2-(((R)-1-((R,E)-1^1,2^6,7-trimethyl-3-oxo-5^2,5^3-dihydro-1^1H,5^1H-11-oxa-4-aza-5(2,1)-benzo[d]imidazola-2(2,4)-pyridina-1(4,5)-pyrazolacycloundecaphane-5′-carbonyl)pyrrolidin-3-yl)amino)ethyl)phenyl)piperidine-2,6-dione]
DC50 (Del19/T790M/C797S EGFR): 0.842 nM | Dmax (%) (Del19/T790M/C797S EGFR): 51.36% | DC50 (L858R/T790M/C797S EGFR): 0.707 nM | Dmax (L858R/T790M/C797S EGFR): 84.8%

Cc1cc2cc(n1)-c1cnn(C)c1OCCC[C@@H](C)CN1/C(=N/C2=O)Nc2ccc(CN3CC4CCC3CN4C(=O)[C@@H]3CCN(c4cc(F)c([C@H]5CCC(=O)NC5=O)c(F)c4)C3)cc21 (stereo partly drawn) [Example 164, (3R)-3-(2,6-difluoro-4-((3R)-3-(5-(((R,E)-1^1,2^6,7-trimethyl-3-oxo-5^2,5^3-dihydro-1^1H,5^1H-11-oxa-4-aza-5(2,1)-benzo[d]imidazola-2(2,4)-pyridina-1(4,5)-pyrazolacycloundecaphane-5^6-yl)methyl)-2,5-diazabicyclo[2.2.2]octane-2-carbonyl)pyrrolidin-1-yl)phenyl)piperidine-2,6-dione]
DC50 (Del19/T790M/C797S EGFR): 1.95 nM | Dmax (%) (Del19/T790M/C797S EGFR): 73.21% | DC50 (L858R/T790M/C797S EGFR): 1.46 nM | Dmax (L858R/T790M/C797S EGFR): 83.1%

Cc1cc2cc(n1)-c1cnn(C)c1OCCC[C@@H](C)CN1/C(=N/C2=O)Nc2ccc(C(=O)N(C)[C@@H]3CCN(CCc4cc(F)c([C@H]5CCC(=O)NC5=O)c(F)c4)C3)cc21 [Example 291, (R,E)-N—((R)-1-(4-((R)-2,6-dioxopiperidin-3-yl)-3,5-difluorophenethyl)pyrrolidin-3-yl)-N,1^1,2^6,7-tetramethyl-3-oxo-5^2,5^3-dihydro-1^1H,5^1H-11-oxa-4-aza-5(2,1)-benzo[d]imidazola-2(2,4)-pyridina-1(4,5)-pyrazolacycloundecaphane-5^6-carboxamide]
DC50 (Del19/T790M/C797S EGFR): 0.513 nM | Dmax (%) (Del19/T790M/C797S EGFR): 72.04% | DC50 (L858R/T790M/C797S EGFR): 0.63 nM | Dmax (L858R/T790M/C797S EGFR): 79%

Cc1cc2cc(n1)-c1cnn(C)c1OCCC[C@@H](C)CN1/C(=N/C2=O)Nc2ccc(N3CC(C(=O)N4CCN(c5cc(F)c([C@H]6CCC(=O)NC6=O)c(F)c5)CC4)C3)cc21 [Example 354, (R)-3-(2,6-difluoro-4-(4-(1-((R,E)-1^1,2^6,7-trimethyl-3-oxo-5^2,5^3-dihydro-1^1H,5^1H-11-oxa-4-aza-5(2,1)-benzo[d]imidazola-2(2,4)-pyridina-1(4,5)-pyrazolacycloundecaphane-5^6-yl)azetidine-3-carbonyl)piperazin-1-yl)phenyl)piperidine-2,6-dione]
DC50 (Del19/T790M/C797S EGFR): 0.501 nM | Dmax (%) (Del19/T790M/C797S EGFR): 72.74% | DC50 (L858R/T790M/C797S EGFR): 0.59 nM | Dmax (L858R/T790M/C797S EGFR): 89.3%

— patent US20240342292A1, “Compounds for the Degradation of EGFR Kinase” (BeiGene Switzerland GmbH, priority 2021, published 2024)
